Laboratory results: patent publication US20240343755A1, “STABLE ISOQUINOLINE-CORTICOSTEROID CONJUGATES AND USES THEREOF” (priority 2021, published 2024)
pIC50: −log10 of the molar value. Structures can show the parent of a compound that is named as a salt. Where two headings read alike, the source gives them in different places.

How the values were obtained:
[1] = molecular target: Rho-associated protein kinase 2 (ROCK2) (Homo sapiens, UniProt O75116); test: In vitro ROCKi activity, ROCK2; type: biochemical; conditions: for IC50: read-out: IC50 (nM) ROCK2
Sequence of Rho-associated protein kinase 2 (ROCK2) (O75116 whole entry, species assumed): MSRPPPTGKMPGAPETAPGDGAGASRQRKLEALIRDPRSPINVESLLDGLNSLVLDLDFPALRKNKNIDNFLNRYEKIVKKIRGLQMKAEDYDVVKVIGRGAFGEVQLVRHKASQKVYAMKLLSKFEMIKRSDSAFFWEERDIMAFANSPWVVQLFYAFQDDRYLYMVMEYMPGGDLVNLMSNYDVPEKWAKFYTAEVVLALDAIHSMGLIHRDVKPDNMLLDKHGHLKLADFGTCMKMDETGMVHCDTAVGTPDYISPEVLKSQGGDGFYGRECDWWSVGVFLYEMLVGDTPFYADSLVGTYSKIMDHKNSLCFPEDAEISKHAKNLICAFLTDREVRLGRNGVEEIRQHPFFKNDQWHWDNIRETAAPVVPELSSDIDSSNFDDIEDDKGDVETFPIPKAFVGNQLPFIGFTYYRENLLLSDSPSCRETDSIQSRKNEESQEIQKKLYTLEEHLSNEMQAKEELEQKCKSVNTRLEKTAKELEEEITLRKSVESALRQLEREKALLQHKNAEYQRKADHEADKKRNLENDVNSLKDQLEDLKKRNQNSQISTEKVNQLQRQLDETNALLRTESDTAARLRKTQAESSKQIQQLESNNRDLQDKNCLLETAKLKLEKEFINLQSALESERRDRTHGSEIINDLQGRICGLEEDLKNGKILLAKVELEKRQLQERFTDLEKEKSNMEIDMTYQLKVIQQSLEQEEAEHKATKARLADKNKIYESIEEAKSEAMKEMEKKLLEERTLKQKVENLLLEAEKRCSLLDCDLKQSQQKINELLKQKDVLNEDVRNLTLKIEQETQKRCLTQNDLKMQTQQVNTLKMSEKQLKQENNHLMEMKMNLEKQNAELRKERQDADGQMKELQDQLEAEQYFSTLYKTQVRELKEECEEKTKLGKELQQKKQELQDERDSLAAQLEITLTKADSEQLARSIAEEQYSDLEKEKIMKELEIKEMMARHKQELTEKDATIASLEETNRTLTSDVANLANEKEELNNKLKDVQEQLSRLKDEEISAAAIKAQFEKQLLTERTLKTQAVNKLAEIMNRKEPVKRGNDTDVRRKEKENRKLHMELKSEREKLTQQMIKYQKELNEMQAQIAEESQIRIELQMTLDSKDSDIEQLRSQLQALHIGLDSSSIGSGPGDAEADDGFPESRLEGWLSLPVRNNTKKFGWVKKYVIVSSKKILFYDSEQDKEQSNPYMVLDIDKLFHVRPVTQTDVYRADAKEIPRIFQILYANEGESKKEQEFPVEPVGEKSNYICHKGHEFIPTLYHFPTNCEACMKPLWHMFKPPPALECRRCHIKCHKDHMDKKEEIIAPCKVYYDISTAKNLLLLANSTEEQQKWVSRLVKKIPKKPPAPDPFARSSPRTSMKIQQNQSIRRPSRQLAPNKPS
Protocol: (§1) Activities of certain compounds and components of compounds described herein were assayed. […] Rho-associated protein kinase 2=ROCK2; Rho-associated protein kinase 1=ROCK1; Porcine Trabecular Meshwork cells=PTM; Human Trabecular Meshwork cells=HTM; Splenic Interleukin-23=SPNL IL23; and Tumor Necrosis Factor α=TNFα.

[2] = molecular target: Rho-associated protein kinase 1 (ROCK1) (Homo sapiens, UniProt Q13464); test: In vitro ROCKi activity, ROCK1; type: biochemical
Sequence of Rho-associated protein kinase 1 (ROCK1) (Q13464 whole entry, species assumed): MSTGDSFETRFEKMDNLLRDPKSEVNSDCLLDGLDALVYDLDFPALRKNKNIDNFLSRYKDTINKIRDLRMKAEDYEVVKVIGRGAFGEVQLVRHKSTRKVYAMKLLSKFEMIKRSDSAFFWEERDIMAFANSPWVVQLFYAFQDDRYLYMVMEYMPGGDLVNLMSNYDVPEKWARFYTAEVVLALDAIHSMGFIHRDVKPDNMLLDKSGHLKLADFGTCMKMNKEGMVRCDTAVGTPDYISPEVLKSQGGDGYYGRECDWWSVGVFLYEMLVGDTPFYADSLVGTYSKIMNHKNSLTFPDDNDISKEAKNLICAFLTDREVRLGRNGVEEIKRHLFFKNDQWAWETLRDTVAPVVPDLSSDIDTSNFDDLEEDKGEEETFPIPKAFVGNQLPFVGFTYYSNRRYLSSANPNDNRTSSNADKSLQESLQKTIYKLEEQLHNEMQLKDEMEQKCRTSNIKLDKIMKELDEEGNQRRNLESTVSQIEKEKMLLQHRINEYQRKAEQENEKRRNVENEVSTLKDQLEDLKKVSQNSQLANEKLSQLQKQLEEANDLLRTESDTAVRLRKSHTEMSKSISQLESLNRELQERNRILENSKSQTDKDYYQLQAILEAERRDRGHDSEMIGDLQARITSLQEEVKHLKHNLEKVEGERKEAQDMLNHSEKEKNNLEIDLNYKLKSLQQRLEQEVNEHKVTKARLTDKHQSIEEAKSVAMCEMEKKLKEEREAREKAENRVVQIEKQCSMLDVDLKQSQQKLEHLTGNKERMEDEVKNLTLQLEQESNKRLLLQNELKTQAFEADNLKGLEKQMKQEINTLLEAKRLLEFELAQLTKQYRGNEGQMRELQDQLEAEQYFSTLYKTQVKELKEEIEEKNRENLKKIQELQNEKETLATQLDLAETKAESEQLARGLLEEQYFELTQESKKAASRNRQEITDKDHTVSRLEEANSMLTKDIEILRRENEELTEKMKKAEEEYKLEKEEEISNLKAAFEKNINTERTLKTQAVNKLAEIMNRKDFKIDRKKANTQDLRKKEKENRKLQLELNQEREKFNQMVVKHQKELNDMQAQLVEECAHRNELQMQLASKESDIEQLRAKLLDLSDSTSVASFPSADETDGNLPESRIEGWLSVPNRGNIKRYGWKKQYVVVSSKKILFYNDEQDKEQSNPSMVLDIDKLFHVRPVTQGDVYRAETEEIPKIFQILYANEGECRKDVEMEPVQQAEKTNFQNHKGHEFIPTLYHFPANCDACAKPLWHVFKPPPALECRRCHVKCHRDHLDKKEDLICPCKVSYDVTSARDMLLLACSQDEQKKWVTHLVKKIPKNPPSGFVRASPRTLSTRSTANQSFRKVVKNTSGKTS
Protocol: as §1

[3] = test system: Porcine Trabecular Meshwork cells; test: Activity in Porcine Trabecular Meshwork cells (PTM); type: cell-based; conditions: Sus scrofa
Protocol: as §1

[4] = test system: Human Trabecular Meshwork cells; test: Activity in Human Trabecular Meshwork cells (HTM); type: cell-based
Protocol: as §1

Splenic Interleukin-23 = test: In vitro steroid activity, splenic IL-23; type: cell-based; conditions: read-out: IC50 (nM) SPLN IL23
Protocol: (§2) Activities of certain compounds and components of compounds described herein were assayed. […] Rho-associated protein kinase 2=ROCK2; […] Porcine Trabecular Meshwork cells=PTM; Human Trabecular Meshwork cells=HTM; Splenic Interleukin-23=SPNL IL23; and Tumor Necrosis Factor α=TNFα.

Tumor Necrosis Factor α = test: In vitro steroid activity, TNFα; type: cell-based; conditions: read-out: IC50 (nM) TNFα
Protocol: as §2

[5] = test system: Allergic Eye Disease (AED) in wildtype C57Bl/6 mice; test: Chronic/severe allergic eye disease (AED) model, Meibomian gland dysfunction; type: in vivo; conditions: 0.1% E5 in SBEβCD, topical BID 5 uL
Protocol: E5 was formulated in 5% sulfobutylether-β-cyclodextrin (SBEβCD), 10 mM PBS (0.1% NaCl) solution, pH 6 and filtered with a 0.2 μm PVDF filter. AED was induced in wildtype C57Bl/6 mice. Animals were immunized with one intraperitoneal (i.p) injection of 100 μg of OVA (InvivoGen) in 300 ng of pertussis toxin (List Biologicals) and 4 mg of aluminum hydroxide (Alum, Thermo Fisher Scientific Pierce) on Day 0. Two weeks later, mice were treated topically QD with 5 μL OVA (50 μg/μL) in sterile saline for 5 days. Mice were treated topically BID with 5 uL of vehicle (10% SBEβCD), Lotemax® (Bausch & Lomb; loteprednol etabonate ophthalmic gel 0.5%) or 0.1% E5 in SBEβCD (50:1). The first treatment was administered on Day 14 (2 weeks after initial immunization), 10 minutes prior to OVA instillation followed by a second dose >7 hrs thereafter.
Assessment was carried out following euthanasia. All four lids were gently inverted under a dissection microscope to expose the posterior lid margin. The number of plugs on the upper and lower eyelids are analyzed and scored for severity as follows: 0 indicates no plug, 1+ indicates appearance of plug. 2+ is assigned to a plug that obstructs the entire MG (Meibomian gland) orifice, 3+ is a plug with a dome that rises above the plane of the eyelid margin, and a 4 is given to a plug that covers a larger surface than the MG orifice (usually with irregular circumference edges).
Clinical parameters including eyelid edema, chemosis, conjunctival redness, and tearing were each scored on a scale of 0-3+. A score of 0 indicated no evidence of the respective parameter, 1+ is assigned if the response is mild, but distinctly greater than the naive controls; 2+ for a moderate change in the respective parameters that could be noted by slit-lamp microscopy, but not with naked eye; and 3+ if the response is severe enough that could be perceived with naked eye.
Results are shown in FIG. 9, FIG. 10, and FIG. 11.

[6] = test system: corneal epithelium debridement in C57/B1/6 mice; test: In vivo PK/PD ocular surface corneal wound healing model; conditions: 0.1% E5 in SBEβCD
Protocol: E5 was formulated in 3.5% sulfobutylether-β-cyclodextrin (SBEβCD), 10 mM PBS, pH 6 and filtered with a 0.2 μm PVDF filter.
Anesthetized animals (8-10 weeks old male C57/B1/6 mice) were placed under a dissecting microscope and eyes proposed. Corneas of OD eyes were demarcated by centrally, and softly, marking the perimeters of the debridement area with a 2 mm trephine. A 10 μL drop of PBS was placed on the eye and an Algerbrush with a 0.5 mm burr attachment was utilized to carefully remove the epithelium within the demarcated area of the cornea. Topical fluorescein (Sigma) was applied, and excess fluorescein flushed prior to capture of a baseline image of the wound (time=0). Topical treatments were administered at t=0 and t=6 hours post-injury by applying 5 µL to the surface of the debrided eye. Fluorescein-stained corneas were imaged again 24 h after injury. Percent re-epithelialization was assessed by analysis of imaged corneas with Image J (NIH, Bethesda, MD).
0.1% dexamethasone and 0.5% loteprednol were used as positive clinically relevant controls.

[7] = test system: intraocular pressure in normotensive Dutch Belted rabbits; test: Intraocular pressure study in normotensive Dutch Belted rabbits; type: in vivo; conditions: single dose E5 0.1% or 0.25%
Protocol: E5 was formulated in 3.5% or 6.5% sulfobutylether-β-cyclodextrin (SBEβCD), 10 mM PBS, pH 6 and filtered with a 0.2 μm PVDF filter. A single dose was administered and the intraocular pressure was measured, e.g., with a pneumatonometer, for 32 hours post-dose.

pIC50 [1] | IC50 [4] | IC50 (Splenic Interleukin-23; Splenic Interleukin-23) | Structure (SMILES) | IC50 [2] | IC50 [3] | IC50 (Tumor Necrosis Factor α) | IC50 [1] | IC50 (Splenic Interleukin-23) | Meibomian gland orifice plugging (number and severity of MG plugs) ([5]; FIG. 10) | neutrophil levels in Meibomian gland and conjunctiva ([5]; FIG. 11) | clinical scoring (eyelid edema, chemosis, conjunctival redness, tearing) ([5]; better than loteprednol gel, significance on day 4, FIG. 9) | re-epithelialization (recovery of epithelium) ([6]; 24 h after epithelium debridement, FIG. 12) | myeloperoxidase (MPO) levels (eye surface inflammation) ([6]; topical 5 µL at t=0 and t=6 hours post-injury, FIG. 13) | hyperemia ([7]; Dutch belted rabbits) | intraocular pressure (IOP) ([7]; measured for 32 hours post-dose, FIG. 14, FIG. 15)
 | ≥ 3000 nM | 4.6 nM | C[C@@H]1C[C@H]2[C@@H]3CCC4=CC(=O)C=C[C@]4(C)[C@@]3(F)[C@@H](O)C[C@]2(C)[C@@]1(O)C(=O)CO [B, Dexamethasone, reference compound] |  | ≥ 3000 nM | 47 nM |  |  |  |  |  |  |  |  | 
 |  | 0.93 nM | CC1(C)O[C@@H]2C[C@H]3[C@@H]4CCC5=CC(=O)C=C[C@]5(C)[C@@]4(F)[C@@H](O)C[C@]3(C)[C@]2(C(=O)CO)O1 [C, Triamcinolone, reference compound] |  |  | 0.51 nM |  |  |  |  |  |  |  |  | 

Second part, the compound before the results:

Structure (SMILES) | pIC50 [1] | IC50 [4] | IC50 (Splenic Interleukin-23; Splenic Interleukin-23) | IC50 [2] | IC50 [3] | IC50 (Tumor Necrosis Factor α) | IC50 [1] | IC50 (Splenic Interleukin-23) | Meibomian gland orifice plugging (number and severity of MG plugs) ([5]; FIG. 10) | neutrophil levels in Meibomian gland and conjunctiva ([5]; FIG. 11) | clinical scoring (eyelid edema, chemosis, conjunctival redness, tearing) ([5]; better than loteprednol gel, significance on day 4, FIG. 9) | re-epithelialization (recovery of epithelium) ([6]; 24 h after epithelium debridement, FIG. 12) | myeloperoxidase (MPO) levels (eye surface inflammation) ([6]; topical 5 µL at t=0 and t=6 hours post-injury, FIG. 13) | hyperemia ([7]; Dutch belted rabbits) | intraocular pressure (IOP) ([7]; measured for 32 hours post-dose, FIG. 14, FIG. 15)
NC[C@@H](C(=O)Nc1ccc2cnccc2c1)c1ccc(CO)cc1 [A, reference compound] | 9.00 | 5 nM |  | 1.7 nM | 13 nM |  |  |  |  |  |  |  |  |  | 
CC1(C)O[C@@H]2C[C@H]3[C@@H]4CCC5=CC(=O)C=C[C@]5(C)[C@@]4(F)[C@@H](O)C[C@]3(C)[C@]2(C(=O)COC(=O)CCCC(=O)OCc2ccc([C@@H](CN)C(=O)Nc3ccc4cnccc4c3)cc2)O1 [Example E5, 4-((S)-3-amino-1-(isoquinolin-6-ylamino)-1-oxopropan-2-yl)benzyl (2-((6aS,6bR,7S,8aS,8bS,11aR,12aS,12bS)-6b-fluoro-7-hydroxy-6a,8a,10,10-tetramethyl-4-oxo-1,2,4,6a,6b,7,8,8a,11a,12,12a,12b-dodecahydro-8bH-naphtho[2′,1′:4,5]indeno[1,2-d][1,3]dioxol-8b-yl)-2-oxoethyl) glutarate dihydrochloride] |  |  |  | 9 nM | 55 nM | 10 nM | 9 nM | 1 nM | effective in lowering both the number and severity of the MG plugs compared to both vehicle and loteprednol | reduced the number of neutrophils in the Meibomian gland and conjunctiva | statistically significantly improved compared to vehicle | did not affect the recovery of epithelium | significantly reduced the cornea inflammation in comparison to PBS (phosphate-buffered saline) vehicle and loteprednol groups | no hyperemia observed | lowered IOP in a dose-dependent manner
C[C@@H]1C[C@H]2[C@@H]3CCC4=CC(=O)C=C[C@]4(C)[C@@]3(F)[C@@H](O)C[C@]2(C)[C@@]1(O)C(=O)COC(=O)CCCC(=O)OCc1ccc([C@@H](CN)C(=O)Nc2ccc3cnccc3c2)cc1 [Example E15] |  |  | 12 nM | 7 nM | 40 nM | 147 nM | 4 nM |  |  |  |  |  |  |  | 
